In ChEMBL document CHEMBL4888484, “Replenishing the malaria drug discovery pipeline: Screening and hit evaluation of the MMV Hit Generation Library 1 (HGL1) against asexual blood stage Plasmodium falciparum ,using a nano luciferase reporter read-out” (2022):

Legend:
Plasmodium falciparum [1] = assay: Hit confirmation in dose-response curve in NF54 pLDH assay, at 72h; assay type: functional, organism-based; parameters: timepoint 72 hour; conditions: NF54, Erythrocyte
[2] = Hit confirmation in dose-response curve in HepG2 cytotoxicity assay, at 72h; assay type: toxicity, cell-based; parameters: timepoint 72 hour; conditions: human, HepG2 cells
Plasmodium falciparum [3] = assay: Hit confirmation in dose-response curve in NF54 nanoGlo assay, at 12h; assay type: functional, organism-based, Erythrocyte; parameters: timepoint 12 hour; conditions: Plasmodium falciparum, NF54, Erythrocyte, 12 h
Plasmodium falciparum [4] = assay: Hit confirmation in dose-response curve in Dd2 pLDH assay, at 72h; assay type: functional, organism-based; parameters: timepoint 72 hour; conditions: Dd2, Erythrocyte
Plasmodium falciparum [5] = assay: Hit confirmation in dose-response curve in NF54 nanoGlo assay, at 72h; assay type: functional, organism-based, Erythrocyte; parameters: timepoint 72 hour; conditions: Plasmodium falciparum, NF54, Erythrocyte, 72 h

Row | Compound | IC50 (Plasmodium falciparum [1]) | IC50 at 72 h [2] | IC50 (Plasmodium falciparum [3]) | IC50 (Plasmodium falciparum [4]) | IC50 (Plasmodium falciparum [5])
1 | COc1cccc(S(=O)(=O)N2CCCN(Cc3ccncc3)[C@H](c3ccccc3)CC(=O)NCC2)c1 | 3.24 µM | > 10 µM | 2.82 µM | 2.19 µM | 0.933 µM
2 | CCC(=O)N1CCc2sc(S(=O)(=O)N3CCN(c4cc(C)ccc4C)CC3)cc2C1 | > 10 µM | > 10 µM | > 10 µM | > 10 µM | 5.89 µM
3 | COc1ccc(S(=O)(=O)N2CCC(c3cc(N)on3)CC2)cc1Cl | 6.31 µM | > 10 µM | > 10 µM | 3.89 µM | 1.82 µM
4 | CCc1nc2cc(N3CCC(C(=O)Nc4ccc5c(c4)OCO5)CC3)cnc2nc1CC | > 10 µM | > 10 µM | 0.417 µM | > 10 µM | 1.29 µM
5 | Cc1c(F)cccc1NC(=O)N1CCN(C2=CC3=N[C@@H](C)CN3C=N2)CC1 | 2.69 µM | > 10 µM | > 10 µM | 4.07 µM | 3.63 µM
6 | CC1CCN(C[C@H]2CCCCCN2C(=O)NCCc2ccccc2)CC1 | 2.45 µM | > 10 µM | > 10 µM | 6.31 µM | 3.98 µM
7 | CC[C@H]1CN2C=NC(N3CCN(C(=O)Nc4cc(F)cc(F)c4)CC3)=CC2=N1 | 1.26 µM | > 10 µM | > 10 µM | 3.39 µM | 2.82 µM
8 | Cc1oc(-c2ccn[nH]2)cc1S(=O)(=O)Nc1ccc(F)c(Cl)c1 | > 10 µM | > 10 µM | 2.57 µM | > 10 µM | 5.37 µM
9 | COc1ccc(CN2CC[C@@H]3C(=O)NCCCCCCN(Cc4ccncc4)[C@@H]3C2)cc1Cn1ccnc1 | 1.15 µM | > 10 µM | 7.08 µM | 1.17 µM | 1.1 µM
10 | CCC(C(=O)Nc1ccc2c(c1)CN(CCc1ccc(OC)c(OC)c1)C(=O)C(C)O2)c1ccccc1 (stereo not given) | 2.88 µM | > 10 µM | 0.912 µM | 1.82 µM | 0.288 µM
11 | Cc1oc(-c2ccn[nH]2)cc1S(=O)(=O)Nc1cccc(Cl)c1 | 7.76 µM | > 10 µM | 0.933 µM | > 10 µM | 1.48 µM
12 | Cc1nnc(-c2ccc3ccn(CC(=O)Nc4ccc(F)c(Cl)c4)c3c2)o1 | 1 µM | > 10 µM | 3.16 µM | 2.69 µM | 2 µM
13 | COc1ccc(CCNC(=O)c2cc3c(=O)[nH]c(C)cn3n2)cc1OC | > 10 µM | > 10 µM | 0.457 µM | > 10 µM | 1.45 µM
14 | O=C(NCCN1CCCC1)c1ccc2nc(-c3ccc(Cl)cc3)cn2c1 | 2.69 µM | > 10 µM | 4.07 µM | 2.63 µM | 2.63 µM
15 | CCc1cccc(NC(=O)N2CCN(C3=CC4=NC[C@H](C)N4C=N3)CC2)c1 | 1.12 µM | > 10 µM | > 10 µM | 2.95 µM | 3.09 µM
16 | COc1cccc(NC(=O)Cn2c(C)ccc(NS(=O)(=O)c3ccc(C)cc3)c2=O)c1 | 7.94 µM | > 10 µM | 9.12 µM | 3.63 µM | 3.24 µM
17 | O=C(NCc1ccccc1F)C1CCN(c2cncnc2N2CCCC2)CC1 | > 10 µM | > 10 µM | 8.71 µM | 7.24 µM | 3.55 µM
18 | CC(C)CCn1nnnc1[C@]1(N(C)C)CCCN(C(=O)c2cccn2C)C1 | > 10 µM | > 10 µM | 0.275 µM | > 10 µM | 0.309 µM
19 | CC(C)c1cccc(Nc2nc3ccncc3n(C(C)C)c2=O)c1 | 2.82 µM | > 10 µM | 3.31 µM | 2.09 µM | 1.66 µM
20 | CCn1ncc(CN2CC[C@@H]3C(=O)NCCCCCCN(Cc4ccncc4)[C@@H]3C2)c1C | 1.26 µM | > 10 µM | > 10 µM | 3.63 µM | 3.72 µM
